One experiment addresses T1, Human CCR5 (Homo sapiens, UniProt P51681).
T1 construct: expressed in transfected cells; host or cells: CHO K1
The experiment is described as follows: CCR5 membrane binding assay ([I-125]MIP-1α). Conditions: table does not name the assay; b437 says 'in these assays'. How it is done:
Human CCR5 is used to generate stable transfectants in CHO K1 cells. Membranes prepared from these CCR5 transfectants are used in a radioligand binding assay using 125-1-MIP-1α as a ligand and the compounds of formula I are tested for inhibitory activity. The data are reported as IC50, i.e. the concentration of compound required to achieve 50% inhibition of [I-125]MIP-1α binding. In this assay, compounds of formula I have an IC50 between 0.004 and 10 μM.

In a further experiment the target is T2, hCCR2b (Homo sapiens, UniProt P41597).
T2 construct: expressed in transfected cells; host or cells: CHO-dukX
T2 sequence (P41597 1-360 isoform P41597-2): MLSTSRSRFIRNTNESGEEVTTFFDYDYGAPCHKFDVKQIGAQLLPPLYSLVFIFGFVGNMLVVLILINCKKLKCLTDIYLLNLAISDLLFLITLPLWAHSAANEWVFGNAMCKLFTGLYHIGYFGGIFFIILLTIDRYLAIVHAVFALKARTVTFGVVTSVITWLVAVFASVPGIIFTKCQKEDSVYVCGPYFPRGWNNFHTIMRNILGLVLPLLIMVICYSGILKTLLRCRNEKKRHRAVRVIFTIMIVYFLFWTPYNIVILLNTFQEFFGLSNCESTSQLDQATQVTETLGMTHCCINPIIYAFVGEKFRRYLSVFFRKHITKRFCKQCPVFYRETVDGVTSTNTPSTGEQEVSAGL
The experiment is described as follows: CCR2 membrane binding assay (SPA, [125I] MCP-1). Particulars: table does not name the assay; b437 says 'in these assays'. As for the experimental part: Transfected CHO-dukX cells stably expressing the hCCR2b gene are grown in MEM alpha medium to a confluency of between 70 and 80%. After discarding the medium, 30 ml ice-cold physiological buffer solution containing 1 mM EDTA are added and the cells removed from the plate using a scraper. The cell suspension is centrifuged at 800 g for 10′ at 4° C. and the cell pellet resuspended in buffer. Cell lysis is done using a Polytron PTI300D instrument at 28 000 RPM for 2 times 30 seconds on ice. Membranes are collected by centrifugation at 42 000 g for 20 minutes at 4° C. and subjected to a second round of lysis (Polytron, 28 000 RPM, 2×30 seconds on ice). Following centrifugation at 42 000 g for 20 minutes at 4° C. the membranes are resuspended in buffer at a protein concentration of 2 mg/ml and stored at −80° C. Ten millimolar stock solutions of test compounds in 100% DMSO are prepared. Test compounds are further diluted in buffer to yield the four-fold concentrated solutions for the tests that assayed a range of 10^−10 to 10^−5 M. The SPA assay is performed in a final volume of 200 μl per well in 96 well plates. The components are added per well in the following order: • 50 μl Buffer (+/−test compound) • 50 μl Wheat germ agglutinin-SPA beads (1.25 mg/well) in buffer • 50 μl CCR2B membrane suspension diluted with buffer to 0.04 mg/ml (2 μg/well), alternatively 50,000 cells per well • 50 μl [^125I] MCP-1 in buffer (60 pM final concentration, 2.5 μCi/plate)
After addition of all components the plate is sealed and incubated for 90 minutes at room temperature with constant shaking. Following incubation the plate is centrifuged at 1000 RPM in a Sorvall RC3B centrifuge for 4 minutes at room temperature and counted for 3 minutes per well in a TOP COUNT instrument (Packard). The quench-corrected counts are used for the analysis of radioligand binding.

SMILES strings stand for the structures.

As usually defined, the IC50 is the point on the concentration scale where inhibition reaches its midpoint. A low value points to higher potency.

T1 sequence (P51681 whole entry): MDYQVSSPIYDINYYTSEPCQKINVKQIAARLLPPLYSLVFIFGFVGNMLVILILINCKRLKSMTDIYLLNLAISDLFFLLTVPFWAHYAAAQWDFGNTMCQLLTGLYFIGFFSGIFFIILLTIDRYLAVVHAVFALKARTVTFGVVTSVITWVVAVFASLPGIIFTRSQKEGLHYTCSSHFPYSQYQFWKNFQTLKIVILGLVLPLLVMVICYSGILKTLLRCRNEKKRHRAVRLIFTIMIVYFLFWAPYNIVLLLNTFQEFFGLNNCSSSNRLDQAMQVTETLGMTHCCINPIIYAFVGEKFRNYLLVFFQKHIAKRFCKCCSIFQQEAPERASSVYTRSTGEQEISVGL

In the case of `COc1cccc2occ(COc3cccc4[nH]c(C(=O)N[C@H]5CC[C@](O)(CCN6CC[C@H](O)[C@@H](C)C6)CC5)cc34)c12` [Example 10, 4-(4-Methoxy-benzofuran-3-ylmethoxy)-1H-indole-2-carboxylic acid {4-hydroxy-4-[2-((3S,4S)-4-hydroxy-3-methyl-piperidin-1-yl)-ethyl]-cyclohexyl}-amide], the figures for the IC50 at Human CCR5 and on hCCR2b were 10.6 nM and 1.5 nM, respectively.

In the case of `COc1cccc2c(COc3cccc4[nH]c(C(=O)N[C@H]5CC[C@](O)(CCN6CC[C@H](O)[C@@H](C)C6)CC5)cc34)coc12` [Example 23, 4-(7-Methoxy-benzofuran-3-ylmethoxy)-1H-indole-2-carboxylic acid {4-hydroxy-4-[2-((3S,4S)-4-hydroxy-3-methyl-piperidin-1-yl)-ethyl]-cyclohexyl}-amide], the IC50 at Human CCR5 was 12.1 nM; at hCCR2b, 12.5 nM.

In the case of `C[C@H]1CN(CC[C@]2(O)CC[C@@H](NC(=O)c3cc4c(OCc5coc6c5C(=O)CC(C)(C)C6)cccc4[nH]3)CC2)CC[C@@H]1O` [Example 7, 4-(6,6-Dimethyl-4-oxo-4,5,6,7-tetrahydro-benzofuran-3-ylmethoxy)-1H-indole-2-carboxylic acid {4-hydroxy-4-[2-((3S,4S)-4-hydroxy-3-methyl-piperidin-1-yl)-ethyl]-cyclohexyl}-amide], the results for the IC50 at Human CCR5 and on hCCR2b were 11.9 nM and 13.8 nM, respectively.

As for `C[C@H]1CN(CC[C@]2(O)CC[C@@H](NC(=O)c3cc4c(OCc5coc6cc(F)cc(F)c56)cccc4[nH]3)CC2)CC[C@@H]1O` [Example 11, 4-(4,6-Difluoro-benzofuran-3-ylmethoxy)-1H-indole-2-carboxylic acid {4-hydroxy-4-[2-((3S,4S)-4-hydroxy-3-methyl-piperidin-1-yl)-ethyl]-cyclohexyl}-amide], the IC50 on hCCR2b was 2.3 nM.

As for `C[C@H]1CN(CC[C@]2(O)CC[C@@H](NC(=O)c3cc4c(OCc5coc6c5C(=O)CCC6)cccc4[nH]3)CC2)CC[C@@H]1O` [Example 6, 4-(4-Oxo-4,5,6,7-tetrahydro-benzofuran-3-ylmethoxy)-1H-indole-2-carboxylic acid {4-hydroxy-4-[2-((3S,4S)-4-hydroxy-3-methyl-piperidin-1-yl)-ethyl]-cyclohexyl}-amide], the results for the 50% inhibitory concentration (IC50) on Human CCR5 and at hCCR2b were 27 nM and 24.3 nM, respectively.

Turning to `C[C@H]1CN(CC[C@]2(O)CC[C@@H](NC(=O)c3cc4c(OC[C@@H]5COc6ccccc65)cccc4[nH]3)CC2)CC[C@@H]1O` [Example 8, 4-[(S)-1-(2,3-Dihydro-benzofuran-3-yl)methoxy]-1H-indole-2-carboxylic acid {4-hydroxy-4-[2-((3S,4S)-4-hydroxy-3-methyl-piperidin-1-yl)-ethyl]-cyclohexyl}-amide], the IC50 was 58.5 nM on Human CCR5 and 10.8 nM at hCCR2b.

On hCCR2b, `COCCCOc1ccc2c(COc3cccc4[nH]c(C(=O)N[C@H]5CC[C@](O)(CCN6CC[C@H](O)[C@@H](C)C6)CC5)cc34)coc2c1` [Example 19, 4-[6-(3-Methoxy-propoxy)-benzofuran-3-ylmethoxy]-1H-indole-2-carboxylic acid {4-hydroxy-4-[2-((3S,4S)-4-hydroxy-3-methyl-piperidin-1-yl)-ethyl]-cyclohexyl}-amide] registered an IC50 of 0.7 nM.

As to `COc1ccc2c(COc3cccc4[nH]c(C(=O)N[C@H]5CC[C@](O)(CCN6CC[C@H](O)[C@@H](C)C6)CC5)cc34)coc2c1` [Example 13, 4-(6-Methoxy-benzofuran-3-ylmethoxy)-1H-indole-2-carboxylic acid {4-hydroxy-4-[2-((3S,4S)-4-hydroxy-3-methyl-piperidin-1-yl)-ethyl]-cyclohexyl}-amide], the results for the IC50 at Human CCR5 and at hCCR2b were 5.8 nM and 2.7 nM, respectively.

At hCCR2b, `C[C@H]1CN(CC[C@]2(O)CC[C@@H](NC(=O)c3cc4c(OCc5coc6cc(F)ccc56)cccc4[nH]3)CC2)CC[C@@H]1O` [Example 22, 4-(6-Fluoro-benzofuran-3-ylmethoxy)-1H-indole-2-carboxylic acid {4-hydroxy-4-[2-((3S,4S)-4-hydroxy-3-methyl-piperidin-1-yl)-ethyl]-cyclohexyl}-amide] yielded an IC50 of 7.4 nM.

For the compound `C[C@H]1CN(CC[C@]2(O)CC[C@@H](NC(=O)c3cc4c(OCc5coc6cc(O[C@H]7CCOC7)ccc56)cccc4[nH]3)CC2)CC[C@@H]1O` [Example 21, 4-{6-[(S)-(Tetrahydro-furan-3-yl)oxy]-benzofuran-3-ylmethoxy}-1H-indole-2-carboxylic acid {4-hydroxy-4-[2-((3S,4S)-4-hydroxy-3-methyl-piperidin-1-yl)-ethyl]-cyclohexyl}-amideamide], the figures for the IC50 on Human CCR5 and at hCCR2b were 9 nM and 1.6 nM, respectively.

As to `CCOCCCOc1ccc2c(COc3cccc4[nH]c(C(=O)N[C@H]5CC[C@](O)(CCN6CC[C@H](O)[C@@H](C)C6)CC5)cc34)coc2c1` [Example 20, 4-[6-(3-Ethoxy-propoxy)-benzofuran-3-ylmethoxy]-1H-indole-2-carboxylic acid {4-hydroxy-4-[2-((3S,4S)-4-hydroxy-3-methyl-piperidin-1-yl)-ethyl]-cyclohexyl}-amide], the IC50 is 3.2 nM at Human CCR5 and 0.9 nM at hCCR2b.

`C[C@H]1CN(CC[C@]2(O)CC[C@@H](NC(=O)c3cc4c(OCc5ccoc5)cccc4[nH]3)CC2)CC[C@@H]1O` [Example 3, 4-(Furan-3-ylmethoxy)-1H-indole-2-carboxylic acid {4-hydroxy-4-[2-((3S,4S)-4-hydroxy-3-methyl-piperidin-1-yl)-ethyl]-cyclohexyl}-amide] displayed an IC50 at Human CCR5 of 13.8 nM.

In turn, `COCC(C)Oc1ccc2c(COc3cccc4[nH]c(C(=O)N[C@H]5CC[C@](O)(CCN6CC[C@H](O)[C@@H](C)C6)CC5)cc34)coc2c1` (mixture of isomers) [Example 17, 4-[6-((RS)-2-Methoxy-1-methyl-ethoxy)-benzofuran-3-ylmethoxy]-1H-indole-2-carboxylic acid {4-hydroxy-4-[2-((3S,4S)-4-hydroxy-3-methyl-piperidin-1-yl)-ethyl]-cyclohexyl}-amide] yielded an IC50 at hCCR2b of 0.8 nM.

As to `C[C@H]1CN(CC[C@]2(O)CC[C@@H](NC(=O)c3cc4c(OCC5CCC5)cccc4[nH]3)CC2)CC[C@@H]1O` [Example 1, 4-Cyclobutylmethoxy-1H-indole-2-carboxylic acid {4-hydroxy-4-[2-((3S,4S)-4-hydroxy-3-methyl-piperidin-1-yl)-ethyl]-cyclohexyl}-amide], the concentration for half-maximal inhibition (IC50) is 13.2 nM on Human CCR5 and 12 nM on hCCR2b.

For `C[C@H]1CN(CC[C@]2(O)CC[C@@H](NC(=O)c3cc4c(OCc5coc6ccc(Cl)cc56)cccc4[nH]3)CC2)CC[C@@H]1O` [Example 12, 4-(5-Chloro-benzofuran-3-ylmethoxy)-1H-indole-2-carboxylic acid {4-hydroxy-4-[2-((3S,4S)-4-hydroxy-3-methyl-piperidin-1-yl)-ethyl]-cyclohexyl}-amide], the IC50 at Human CCR5 amounted to 0.5 nM; on hCCR2b, 0.2 nM.

Source of the values: patent US8354431B2, “Aryl carboxylic acid cyclohexyl amide derivatives” (Novartis AG, priority 2007, dated 2013).
